Test results as given in patent US20240358683A1, “COMPOSITION FOR PREVENTING OR TREATING NEURODEGENERATIVE DISEASE COMPRISING COMPOUND INDUCING EXPRESSION OF ANTI-AGING GENE KLOTHO” (KLOTHO SCIENCES, priority 2021, published 2024).

Assays:
human klotho gene [1] = assay: Luciferase expression experiment, human klotho promoter reporter (1.7 kbp / 240 bp) in RPTEC cells; type: cell-based; details: 5 μM, 24 hours, compared among Comparative Examples 1 to 4, FIG. 1
Experimental: (§1) In order to evaluate whether the klotho gene was expressed by the evaluation of luciferase activity, human renal proximal tubule epithelial cells (RPTECs) (ATCC CRL-4031), which are epithelial cells of the proximal tubule of the human kidneys, were purchased from Lonza, USA and used.
(§2) For culturing, a Renal Epithelial Growth Medium (REGM™) Bullet kit, also manufactured by the same Lonza company, was used, and the cells were cultured under conditions of 37° C. and 5% CO2. As a plasmid for luciferase expression, a plasmid in which the promoter site of a human KL (klotho) gene was disposed to regulate the expression of a firefly luciferase gene was used.
The plasmid was incorporated into cells using an X-treme GENE transfection reagent from Roche. The activity of luciferase expressed in cells was measured using a Dual-Luciferase reporter assay system manufactured by Promega. After the cultured cells were treated with each compound at an indicated concentration for 24 hours, the activity of luciferase was measured. It is indirectly shown that the expression of the klotho gene may be increased when the activity of luciferase is high. […]

human klotho gene [2] = assay: Luciferase expression experiment, reporter gene pHKP-luc (promoter up to -2.1 kb upstream of the human klotho gene) in RPTECs; type: cell-based
Experimental: as §1, §2
The plasmid was incorporated into cells using an X-treme GENE transfection reagent from Roche. The activity of luciferase expressed in cells was measured using a Dual-Luciferase reporter assay system manufactured by Promega. After the cultured cells were treated with each compound at an indicated concentration for 24 hours, the activity of luciferase was measured. It is indirectly shown that the expression of the klotho gene may be increased when the activity of luciferase is high.
The results of confirming the expression of a reporter gene by treating RPTECs, which are epithelial cells of the proximal tubule of the human kidneys, with Examples 1 to 6 at concentrations of 0.5, 1 and 5 μM and Comparative Example 1 at a concentration of 5 μM and using a reporter gene (pHKP-luc) including a promoter included up to −2.1 kb upstream of the human klotho gene are illustrated in FIGS. 2 and 3.

klotho (KL) gene [3] = assay: Quantitative evaluation of klotho (KL) gene expression level using real-time PCR in RPTEC cells; type: cell-based, human; details: RPTEC cells treated for 6 hours; vs Comparative Example 1; FIG. 4
Experimental: For RNA extraction from RPTEC cells, which are epithelial cells of the proximal tubule of the human kidneys, treated with the compounds of Comparative Example 1 and Examples 1 and 2 for 6 hours, an RNeasy kit from Qiagen Inc. was used. The results of preparing cDNA from extracted RNA using a Superscript II kit from Thermo Fisher Scientific, Inc. and performing the quantitative evaluation using Taqman Gene Expression assays from Applied Biosystems as a klotho (KL) gene-specific kit are illustrated in FIG. 4.

5×FAD mice [4] = assay: Passive avoidance experiment in 5×FAD mice; type: in vivo; details: 10 mg/kg p.o. daily for 4 weeks, compared to normal mice, FIG. 12
Source text: (§3) In this experiment, 5×FAD mice aged 4 months or 6 months were used. 5×FAD mice are Alzheimer's mice genetically modified to overproduce beta amyloid (Aβ, β amyloid) and were provided by the KIST Research Animal Resource Center, which maintains and sells them. Normal control (WT) mice, which are not genetically modified to overproduce β-amyloid (Aβ), were provided by the KIST Research Animal Resource Center. The animals were acclimatized for 1 week before the experiments. Mice were kept on an ad libitum diet in an animal room maintained at 22±2° C. and 40-60% humidity, and the light and dark cycles were controlled at 12-hour intervals. […]
Animal model mice and normal control mice received vehicle (5% DMSO+65% PEG400+30% Saline) or vehicle with KS1 (Example 10) dissolved in it orally (p.o.) at a concentration of 10 mg/kg daily for 4 or 12 weeks. […] The body weight was measured weekly during the treatment period, and after the end of the treatment, the cognitive function was tested and sacrificed, and the organs were harvested to confirm the changes through biochemical methods. […]
(§4) All data were expressed as mean (S.E.M), and differences between groups were determined using one-way ANOVA and Tukey's multiple comparisons test. When it was determined that there was a statistical difference, p<0.05 *, p<0.01 **, p<0.001 *** were indicated.

5×FAD mice [5] = assay: Novel object recognition test (NOR) in 5×FAD mice; type: in vivo; details: 10 mg/kg p.o. daily, compared to vehicle, FIG. 11
Source text: as §3
Animal model mice and normal control mice received vehicle (5% DMSO+65% PEG400+30% Saline) or vehicle with KS1 (Example 10) dissolved in it orally (p.o.) at a concentration of 10 mg/kg daily for 4 or 12 weeks. […] The body weight was measured weekly during the treatment period, and after the end of the treatment, the cognitive function was tested and sacrificed, and the organs were harvested to confirm the changes through biochemical methods.
The novel object recognition test is a modification of the existing method and consists of an adaptation period, an exploration period, and a novel object recognition period. […] The next day, one of the objects was replaced with a new object and the animal's movement was measured for 10 minutes. […]

HT22 cells [6] = assay: Neuronal senescence inhibition, senescence β-galactosidase staining; type: cell-based, mouse; details: FIG. 7
Experimental: (§5) HT22 cells, neuronal cells derived from mouse hippocampus, were cultured in DMEM culture medium supplemented with 10% FBS. Cell cultures were incubated in a 37° C. incubator at 5% CO2, and when the cells grew to saturate the surface of the culture dish by 80%, they were treated with 0.05% trypsin and transferred to new culture dishes for passage. The compound was added to the medium at each passage to maintain a final concentration of 2.5 μM. Cells with only DMSO as solvent were used as a negative control, and cells from three passages (#5) were used as a non-aging control. All senescent cells were cultured in 20 passages (#25).
To check the degree of senescence of the cells, “Senescence β-galactosidase staining kit” from Cell Signaling Technology was used. The staining solution was added to the cells on the day of the experiment and the stained cells were checked 8 hours later. The number of stained cells was determined and expressed as a percentage of the total number of cells observed under a 200× microscope, and the number of stained cells in three different locations per sample was counted and averaged. As the expression of β-galactosidase enzyme increases as the aging of cells progresses, stained cells can be judged as more aged cells than unstained cells.

HT22 cells [7] = assay: Neuronal inflammation inhibition, LPS-induced cytotoxicity (Cyto X cell viability assay); type: cell-based, mouse; details: 2.5 μM, LPS 1 μg/mL 24 hours, FIG. 8
Experimental: as §5
Cells were seeded at 10,000 cells in 160 μl of medium into each well of a 96-well plate and incubated in a 37° C. incubator at 5% CO^2 for 24 h. The compounds were added to the culture medium to a final concentration of 2.5 μM. After incubation, LPS (lipopolysaccharide) from Cell application was added at a concentration of 1 μg/mL and incubated for another 24 hours. The Cyto X cell viability assay kit from the same company was then added 20 μl to each well and incubated for 1 to 4 hours. The color change was then measured at 450 nm.

[8] = test system: human kidney-2 (HK2) cells; assay: Toxicity test, EZ-Cytox kit; type: cell-based; details: 12.5 μM or 25 μM, 24 hours, FIG. 6
Experimental: Cultured human kidney-2 (HK2) cells were treated with Comparative Example 1, Example 2 and Examples 9 to 10 at a concentration of 25 μM or 12.5 μM, and after 24 hours, cytotoxicity was measured using an EZ-Cytox kit.

phospho-Tau = phospho-Tau immunohistochemistry of brain tissue sections, 5×FAD cognitive dysfunction animal model; type: in vivo; details: 5×FAD mice, 10 mg/kg p.o. daily, FIG. 9
Source text: (§6) In this experiment, 5×FAD mice aged 4 months or 6 months were used. 5×FAD mice are Alzheimer's mice genetically modified to overproduce beta amyloid (Aβ, β amyloid) and were provided by the KIST Research Animal Resource Center, which maintains and sells them. Normal control (WT) mice, which are not genetically modified to overproduce β-amyloid (Aβ), were provided by the KIST Research Animal Resource Center. The animals were acclimatized for 1 week before the experiments. Mice were kept on an ad libitum diet in an animal room maintained at 22±2° C. and 40-60% humidity, and the light and dark cycles were controlled at 12-hour intervals. All animal experiments were performed in accordance with the animal care and use regulations of the Institutional Animal Care and Use Committee of the Korea Advanced Institute of Science and Technology (KIST).
(§7) Animal model mice and normal control mice received vehicle (5% DMSO+65% PEG400+30% Saline) or vehicle with KS1 (Example 10) dissolved in it orally (p.o.) at a concentration of 10 mg/kg daily for 4 or 12 weeks. Three mice were used per experimental group. The body weight was measured weekly during the treatment period, and after the end of the treatment, the cognitive function was tested and sacrificed, and the organs were harvested to confirm the changes through biochemical methods.
as §4
(§8) The fluorescence levels of phospho-Tau measured in each region (HPC: hippocampus; CTX: neocortex) of brain tissue sections isolated from control (CTL) and KS1 1-month and 3-month treatment groups of 5×FAD cognitive dysfunction animal model and normal control animal model were investigated by Immunohistochemistry.

klotho (KL) gene [9] = assay: Quantitative evaluation of klotho (KL) gene expression level using general PCR in RPTEC cells; type: cell-based, human; details: 2.5 μM, 6 hours, FIG. 5
Experimental: After RPTEC cells, which are epithelial cells of the proximal tubule of the human kidneys, were each treated with the compounds of Examples 7 to 10 at 2.5 μM for 6 hours, RNA was extracted from the cells, and cDNA was prepared from the extracted RNA using a Superscript II kit from Thermo Fisher Scientific, Inc., and then general PCR was performed.
Information on the primers used in the experiment is as follows. • KL-F […] (SEQ ID NO: 1) • KL-R […] (SEQ ID NO: 2) • GAPDH-F […] (SEQ ID NO: 3) • GAPDH-R […] (SEQ ID NO: 4)
The DNA amplified by PCR was confirmed by staining with ethidium bromide after electrophoresis on an agarose gel, and the amounts of DNA in the band were quantitatively compared using the SPEedyQuant program, and are illustrated in FIG. 5.

NeuN = NeuN immunohistochemistry of brain tissue sections, 5×FAD cognitive dysfunction animal model; type: in vivo; details: 5×FAD mice, 10 mg/kg p.o. daily, FIG. 10
Source text: as §6, §7, §4
as §8, with “level” for “levels”, “NeuN” for “phospho-Tau”, “(CTX: neocortex, CA: […], DG: dentate gyrus)” for “(HPC: hippocampus; CTX: neocortex)”, “was” for “were”

[10] = RPTECs, Examples at 0.5, 1 and 5 μM vs Comparative Example 1 at 5 μM, FIG. 2

For `O=C(Nc1ccccc1Cl)c1c[nH]c2ccccc12` [Comparative Example 1, N-(2-chlorophenyl)-1H-indole-3-carboxamide], the luciferase activity (human klotho gene [1]) was “the highest”.

With `O=C(Nc1nc2ccccc2o1)c1ccc([N+](=O)[O-])cc1Cl` [Example 1, N-(benzo[d]oxazol-2-yl)-2-chloro-4-nitrobenzamide] the “expression of the reporter gene (pHKP-luc)” value (from here on “expression … (pHKP-luc)”) (human klotho gene [2]; [10]) was “level similar to that of Comparative Example 1”.

`Cc1ccc2oc(Nc3ccc(Cl)c(Cl)c3)nc2c1` [Example 2] was tested, and the “expression … (pHKP-luc)” value (human klotho gene [2]; RPTEC cells, 5 μM, vs Comparative Example 1, FIG. 3) was “level similar to that of Comparative Example 1”, the “expression … (pHKP-luc)” value (human klotho gene [2]; [10]) was “level similar to that of Comparative Example 1” and the “klotho (KL) gene mRNA expression level, real-time PCR” value (klotho (KL) gene [3]) was “level similar to that of Comparative Example 1”.

`Fc1ccc(Nc2nc3ccccc3o2)cc1F` [Example 10, N-(3,4-difluorophenyl)benzo[d]oxazol-2-amine] was tested, and the “spatial learning and memory performance, passive avoidance test” value (5×FAD mice [4]) was “maintained a similar level of performance to normal mice”, the “object detection ability (NOR)” value (5×FAD mice [5]) was “statistically significant increase in object detection ability” and the “β-galactosidase stained cells as a percentage of the total number of cells” value (HT22 cells [6]; HT22 cells cultured for 20 passages, 2.5 μM in the medium, DMSO control about 50%) was 40%. For the same compound, the “decrease in the degree of senescence compared to cells grown in medium containing DMSO” value (HT22 cells [6]; HT22 cells, 20 passages, 2.5 μM) was 20%, the “percentage of cells killed by LPS treatment” value (HT22 cells [7]; HT22 cells cultured for 5 passages, DMSO control 50%) was 45% and the “percentage of cells killed by LPS treatment” value (HT22 cells [7]; HT22 cells cultured for 20 passages, DMSO control about 80%) was 60%. For the same compound, the cytotoxicity [8] was “the least toxicity”, the “improvement of toxicity compared to Comparative Example 1” value [8] was no less than 20% and the “expression of phospho-Tau protein, hippocampus (HPC) region” value (phospho-Tau; 1-month and 3-month treatment) was “reduced expression of the proteins was seen in only the 3-month treated mice”. The “expression of phospho-Tau protein, primary somatosensory cortex (CTX) region” value (phospho-Tau; 1-month and 3-month treatment) was “reduced expression of the proteins was seen in both 1- and 3-month treated mice”, the “expression of phospho-Tau protein” value (phospho-Tau; compared to vehicle) was “reduced to a statistically significant level” and the “expression level of the klotho (KL) gene relative to Comparative Example 1” value (klotho (KL) gene [9]) was “about 10 times”. For the same compound, the “expression of NeuN neuromarker protein” value (NeuN; compared to vehicle) was “increased to a statistically significant level”, the “NeuN, Cornu Ammonis (CA)” value (NeuN) was “an increase in NeuN was confirmed” and the “NeuN, dentate gyrus (DG)” value (NeuN) was “no significant increase”. For the same compound, the “NeuN, primary somatosensory cortex (CTX)” value (NeuN) was “no significant increase”.
